“Also recorded” adds a separate entry of the source.
Columns and labels:
[1] = test system: HEK-PDK1 cells; assay: Tumor sphere formation in HEK-PDK1 cells; type: cell-based, human; details: 5 nM BI2536 for 7 days
[2] = test system: DLD1 and SW480 cells; assay: Monolayer dense foci / colony formation of DLD1 and SW480 cells; type: cell-based, human; details: monolayer colony formation, 12 days
Experimental: For DLD1 and HCT116 inducible cells foci formation assay, 1×10^4 cells were seeded on 6-well plate with or without treatment with Dox or rapamcycin. […]

[3] = test system: HEK-TERV cells; assay: Apoptotic assay in HEK-TERV cells; type: cell-based, human; details: 10 nM for 24 h; PDK1-transformed vs control or PI3K (E545)-transformed cells
[4] = test system: SW480 and DLD1 cells; assay: Apoptotic assay in SW480 and DLD1 cells; type: cell-based, human; details: BI2536 10 nM plus BEZ 235 100 nM, 48 hr
[5] = test system: DLD1 and SW480 cells; assay: Cell viability of DLD1 and SW480 cells under drug combinations; type: cell-based, human; details: SW480 and DLD1 cells, BI 2536 10 nM plus BEZ 235 10 nM
Experimental: (§1) Cell viability was measured using CellTiter-Glo™ Luminescent Cell Viability Assay (Promega).
(§2) In brief, 1000 cells were seeded in 96-well plate and the cell number was measured following manufacturer's instruction. To detect the senescence in DLD1-tet on cells, cells were treated with Dox for 48 hr and SA-β-Gal staining was performed according to the protocol of Senescence Detection kit (BioVision). Cell cycle analysis was done by DNA content quantification.

[6] = test system: HCT116 and DKO cells; assay: Rapamycin-induced growth inhibition in HCT116 and DKO cells; type: cell-based, human; details: DKO cells compared to parental HCT116 cells
Experimental: as §1, §2

[7] = test system: cytochrome P-450 3A; details: cited from earlier work
[8] = animal models; cited from earlier work
[9] = test system: experimental allergic encephalomyelitis; details: model for multiple sclerosis; cited from earlier work
[10] = test system: p70S6K and S6 phosphorylation; assay: Immunoblot analysis of p70S6K and S6 phosphorylation; type: cell-based, human; details: DLD1 vector control and PPP2R2B expressing cells, 10 nM rapamycin
[11] = test system: CRC cell lines; assay: Cell viability (CellTiter-Glo): rapamycin-induced growth inhibition in CRC cell lines; type: cell-based; details: Homo sapiens, 120 h; 10 nM rapamycin, 5 days treatment, all examined CRC cell lines; read-out: rapamycin-induced growth inhibition compared to untreated cells
Experimental: as §1, §2

[12] = test system: IgE-like antibodies; details: in vivo; cited from earlier work
[13] = test system: p-AKT (S473); assay: Immunoblot analysis of AKT S473 phosphorylation; type: cell-based, human
[14] = test system: huntingtin accumulation and cell death; details: cell models of HD; cited from earlier work
[15] = test system: DLD1-PPP2R2B cells; assay: Cell cycle analysis by flow cytometry in DLD1-PPP2R2B cells; type: cell-based, human; details: rapamycin added to Dox-induced PPP2R2B expression, 48 h
Experimental: as §2
The cells were fixed with 70% ethanol and stained with propidium iodide (50 μg/ml) staining. The stained cells were analyzed by FACScalibur (BD Bioscience) and quantified by using CellQuest software (BD bioscience).

[16] = test system: PPP2R2B-expressing cancer cell lines; assay: Rapamycin-induced growth inhibition in PPP2R2B-expressing cancer cell lines; type: cell-based, human; details: 10 nM rapamycin, 5 days; compared to CRC cell lines
Experimental: as §1, §2

[17] = test system: adjuvant arthritis; details: model for rheumatoid arthritis; cited from earlier work
[18] = test system: DLD1-PPP2R2B cells; assay: Xenograft tumor growth of DLD1-PPP2R2B cells in nude mice; type: in vivo, BALB/c nude mice
Experimental: The female athymice BALB/c nude mice (5-8 week-old) were housed in the Biological Resource Centre. Mice were implanted subcutaneously in both sides of flank with 3×10^6 DLD1-PPP2R2B or control DLD1 cells, respectively.
When tumors reached ˜70 mm^3, the mice were divided two groups (6 mice per group) and the Doxycyclin was administrated by oral gavages at 100 mg/kg daily. Tumor progress was monitored with whole body weight and tumor size for every other day. For combination treatment with rapamycin and doxycycline, the same dose of doxycyclin was given at every other day and rapamycin was administered by intraperitoneal injection at 4 mg/kg at Day 3, 5, 7 and 11.
Tumor diameters were measured every 3-4 days with caliper and tumor volumes were calculated from 7-9 mice per data time point. All animal work was performed in accordance with animal experiments guidelines of Singapore.

[19] = test system: p-Myc(T58/S62); assay: Immunoblot analysis of Myc phosphorylation; type: cell-based, human
[20] = test system: neurodegeneration; details: fly model of HD; cited from earlier work
[21] = test system: DLD1-PPP2R2B cells; assay: Cell viability assay in DLD1-PPP2R2B cells; type: cell-based, human; details: 10 nM rapamycin, PPP2R2B re-expressed by Dox vs no Dox, 5 days
Experimental: as §1, §2

[22] = test system: DLD1-PPP2R2B cells; assay: Dense foci / colony formation assay in DLD1-PPP2R2B cells; type: cell-based, human; details: 10 nM rapamycin, PPP2R2B re-expressed by Dox vs no Dox, 14 days
Experimental: For DLD1 and HCT116 inducible cells foci formation assay, 1×10^4 cells were seeded on 6-well plate with or without treatment with Dox or rapamcycin. Cells were grown for 2 weeks and the surviving colonies were stained with gentian violet after methanol fixation, and visible colonies (>50 cells) were counted.

[23] = bile of treated rats; cited from earlier work
[24] = test system: Candida albicans; details: in vitro and in vivo; cited from earlier work
[25] = DLD1 cells serum starved 48 h, then 10 nM rapamycin

For `CC[C@@H]1C(=O)N(C)c2cnc(Nc3ccc(C(=O)NC4CCN(C)CC4)cc3OC)nc2N1C1CCCC1` [BI2536], the tumor sphere formation [1] was “blocks the tumor sphere formation; also recorded: abolished the PDK1-driven tumorspheres formation”, the “long term colony formation in combination with BEZ235” value [2] was “strong synergistic” and the apoptosis [3] was “selectively induced apoptosis in PDK1-transformed cells”. For the same compound, the “apoptosis in combination with BEZ235” value [4] was “strong synergistic” and the “growth inhibition in combination with BEZ235” value [5] was “strong synergistic growth inhibition”.

For `CO[C@H]1C[C@@H]2CC[C@@H](C)[C@@](O)(O2)C(=O)C(=O)N2CCCC[C@H]2C(=O)O[C@H]([C@H](C)C[C@@H]2CC[C@@H](O)[C@H](OC)C2)CC(=O)[C@H](C)/C=C(\C)[C@@H](O)[C@@H](OC)C(=O)[C@H](C)C[C@H](C)/C=C/C=C/C=C/1C` [rapamycin, (3S,6R,7E,9R,10R,12R,14S,15E,17E,19E,21S,23S,26R,27R,34aS)-9,10,12,13,14,21,22,23,24,25,26,27,32,33,34,34a-hexadecahydro-9,27-dihydroxy-3-[(1R)-2-[(1S,3R,4R)-4-hydroxy-3-methoxycyclohexyl]-1-methylethyl]-10,21-dimethoxy-6,8,12,14,20,26-hexamethyl-23,27-epoxy-3H-pyrido[2,1-c][1,4]-oxaazacyclohentriacontine-1,5,11,28,29(4H,6H,31H)-pentone], the “sensitivity to rapamycin treatment” value [6] is given as “more sensitive”, the “number of metabolites formed” value [7] is given as “at least six metabolites” and the nephrotoxicity [8] is given as “no nephrotoxicity has been detected”. The efficacy [9] was “effective”, the “p70S6K and S6 phosphorylation” value [10] was “effectively abolished” and the inhibition at 0.01 µM [11] was < 10%. For the same compound, the “formation of IgE-like antibodies” value [12] was “effectively inhibited”, the “AKT S473 phosphorylation” value ([13]; CRC cells (DLD1), 10 nM rapamycin) was “induction of AKT S473 phosphorylation” and the “rapamycin-induced AKT S473 phosphorylation under serum starvation” value [13, 25] was “abolished”. For the same compound, the “AKT S473 phosphorylation” value ([13]; HCT116 and DKO cells, 10 nM rapamycin) was “similarly induced”, the “AKT S473 phosphorylation” value ([13]; PPP2R2B-expressing cancer cell lines) was “consistent induction of AKT S473 phosphorylation” and the “huntingtin accumulation and cell death” value [14] was “attenuates huntingtin accumulation and cell death”. For the same compound, the “cell cycle G2 arrest” value [15] was “markedly augmented”, the sensitivity to rapamycin [16] was “much more sensitive” and the efficacy [17] was “effective”. For the same compound, the “xenograft tumor growth, single treatment” value ([18]; rapamycin 4 mg/kg i.p. or Dox 100 mg/kg oral alone, every other day) was “moderately attenuated”, the “xenograft tumor growth, combination of rapamycin and Dox” value ([18]; rapamycin 4 mg/kg plus Dox 100 mg/kg (PPP2R2B re-expression)) was “strong tumor growth inhibition” and the Myc phosphorylation ([19]; DKO (DNMTs-deficient HCT116) cells, 10 nM rapamycin) was “did not respond to rapamycin”. The “rapamycin-induced Myc phosphorylation under serum starvation” value [19, 25] was “no significant effect”, the “Myc phosphorylation and protein accumulation” value ([19]; DLD1 cells, 10 nM rapamycin, 48 hr) was “strong induction of Myc phosphorylation and protein accumulation; also recorded: induces Myc phosphorylation” and the “time at which the Myc response occurred” value ([19]; DLD1 cells, 10 nM rapamycin, time course) was 4 h. The Myc phosphorylation ([19]; HCT116 cells, 10 nM rapamycin) was “strongly induced”, the Myc phosphorylation ([19]; PPP2R2B-expressing cancer cell lines (HepG2, HepB3, 786-O, Caki2, OVCAR3, OVCAR5, SK-OV-3, U2OS)) was “none of these PPP2R2B-expressing cancer cell lines showed an induction of Myc phosphorylation” and the Myc phosphorylation ([19]; all examined CRC cell lines, rapamycin 48 hr) was “marked induction of Myc phosphorylation”. The neurodegeneration [20] was “protects against neurodegeneration”, the “rapamycin-induced growth inhibition (cell viability assay)” value [21] was “much more effective” and the “rapamycin-induced growth inhibition (colony formation assay)” value [22] was “much more effective”. The “number of hydroxylated and demethylated metabolites detected” value [23] was > 16 and the antifungal activity [24] was “antifungal activity”.

Source: US9249466B2, “Methods and compositions for treating cancer” (Agency for Science, Technology and Research, priority 2010, dated 2016)
